From US7005274B1, “Methods and compositions for diagnosing and treating arthritic disorders and regulating bone mass” (MIGENIX Corp., priority 1999, dated 2006)
Blank lines part the entries; values can stand above or below the molecule they belong to.

Assays:
[1] = system: TC28 cells; experiment: Cell viability by LDH release in stressor-exposed chondrocytes; assay type: cell-based; settings: for cell viability (LDH release) under SIN-1 / cell viability under NOC-12 / cell viability of cells exposed to SIN-1 or NOC-12: compound 1 μM; for cell viability (LDH release) under SIN-1: 100 μM SIN-1; for cell viability under NOC-12: NOC-12 (250 μM)
Protocol: (§1) This example describes screening assays using defined chondrocyte functions, for identifying agents that protect chondrocytes from mitochondrial stressors, such as energy depletion or reactive free radicals. Chondrocytic TC28 cells were maintained at 37° C., 5% CO2 in monolayer culture in DMEM/Ham's F12 medium (1:1) supplemented with 10% FCS, 1% L-glutamine, 100 U/ml penicillin and […] streptomycin (Omega Scientific, Tarzana, Calif.). To more closely approximate the in vivo physiologic nonadherent state of chondrocytes for monitoring GAG release (FIG. 10), an in vitro culture system was used wherein TC28 cells were transferred to 6-well plates that had been previously coated for 18 hours at 22° C. with the cell adhesion inhibitor poly-2-hydroxymethacrylate (polyHEMA), provided as a 10% (w/v) solution in 95% ethanol, then washed twice with PBS. Complete medium (DMEM/F12 supplemented as described above) was then added to wells, and cells were maintained under these conditions for up to 72 hours (Folkman et al., 1978 Nature 273:345; Reginato et al., 1994 Arthritis Rheum. 37:1338). Maintenance of chondrocyte phenotype was confirmed by RT-PCR determination of gene transcripts encoding the chondrocyte extracellular matrix components type II collagen and aggrecan (Reginato et al., 1994).
Cells were exposed to one of several agonists added to cultures as stressors for 72 hours, in the absence or presence of candidate chondrocyte protective agents (listed in Table 2). According to non-limiting theory, such stressors may act as one or more of a mitochondrial inhibitor, an inducer of altered mitochondrial function, an apoptogen, an energy-depleting agent, or the like. Stressors used in this example included the […] NOC-12 (N-ethyl-2-(1-ethyl-2-hydroxy-2-nitrosohydrazino)ethanamine; Calbiochem, La Jolla, Calif.); the peroxynitrite donor SIN-1 (3-morpholinosydnonimine, HCl; Calbiochem); and the inflammatory cytokine human recombinant interleukin-1 beta (IL-1β, Calbiochem). Cytotoxicity was determined using the lactate dehydrogenase release assay (Promega, Madison, Wis.) as described above and according to the manufacturer's instructions, and chondrocyte intracellular ATP was determined using the luciferase assay as described above in Example 1.

[2] = system: TC28 cells; experiment: GAG release, dimethylene blue dye binding; assay type: cell-based; settings: for GAG release caused by stressor: TC28 nodules, SIN-1 100 μM, NOC-12 25 μM, IL-1β
Protocol: as §1
Glycosaminoglycan (GAG) release is widely believed to be a cardinal event in the pathogenesis of osteoarthritis, and is stimulated by IL-1β (see, e.g., Sztrolovics et al., 1999 Biochem. J. 339:571 and references cited therein). Therefore, GAG release was determined in chondrocytes maintained on polyHEMA-coated plates as follows: Chondrocyte cartilage “nodules” from the polyHEMA cultures were digested for one hour with papain, 300 μg/ml in 20 mM sodium phosphate-pH 6.8, 1 mM EDTA, 2 mM dithiothreitol. Released GAG was assayed colorimetrically by dimethylene blue (DMB) dye binding according to established procedures (Farndale et al., 1986 Biochim. Biophys. Acta 883:173; Sztrolovics et al., 1999 Biochem. J. 339:571). Briefly, aliquots of the papain digest were added to a dye solution containing 46 μM DMB, 40 mM glycine-pH 3.0, 40 mM NaCl and read immediately in a spectrophotometer at 525 nm. Quantification of GAG in the samples was achieved from calculations using a standard curve generated with samples of 1–50 μg/ml chondroitin sulfate. Mitochondrial protecting agents based on derivatized creatine, ethoxyquin and guanidine compounds were synthesized essentially as disclosed in WO99/37294 (PCT/US99/01718) and WO99/55321 (PCT/US99/09990), which are hereby incorporated by reference in their entireties; these agents were tested as representative candidate chondrocyte protective agents.

[3] = system: TC28 cells; experiment: Intracellular ATP, luciferase assay; assay type: cell-based; settings: for intracellular ATP levels relative to control culture not exposed to NOC-12: NOC-12 alone or in the presence of 1 μM compound
Protocol: (§2) Levels of total cellular ATP were measured by a modification of luciferase-based assays known in the art (Lin et al., Anal. Biochem. 24:531–540, 1968); related assays and modifications may alternatively be used (see, e.g., Turman et al., In Vitro Cell. Dev. Biol. Anim. 32:1–4, 1996, for an assay format that uses a fluorescent plate reader). In brief, 2×10^6 cells were washed and pelleted in 10 ml phosphate-buffered saline (PBS). The cell pellets were snap-frozen in a dry ice/ethanol bath, after which […] of 0.2 M HCl was added, followed by 0.3 ml of 2 mM glycine (pH 9.0). Samples were heated at 100° C. for five minutes, then placed on ice. A standard curve was developed using 0 to 500 pmol of purified ATP (disodium salt). One hundred (100) μl of the cell extract, or purified ATP standard, was added to an equal volume of the ATP assay mixture (containing MgSO4, DTT, EDTA, luciferase and luciferin, all from the Sigma Bioluminescence Assay Kit and all diluted 1:25). Following a 5 second incubation and 15 second integration, samples were read on a TD-20/20 Luminometer (Turner Designs, Sunnyvale, Calif.).

[4] = system: articular chondrocytes and TC28 cells; experiment: Oxygen consumption with a Clark electrode (respiratory rate); assay type: cell-based, human; settings: SIN-1 500 μM; NOC-12 250 μM; antimycin A and oligomycin concentration not stated
[5] = system: articular chondrocytes and TC28 cells; experiment: Intracellular ATP, statements covering both cell preparations; assay type: cell-based, human; settings: for intracellular ATP levels (qualitative): SIN-1 500 μM, NOC-12 250 μM, antimycin A and oligomycin concentration not stated
Protocol: as §2
In FIG. 1A, articular chondrocytes or TC28 cells (5×10^5) in 5 ml were studied in triplicate in the presence of antimycin (or oligomycin, see next Example) at the indicated concentrations, administered every 24 hours for a total of 72 hours, and total intracellular ATP concentrations were determined as described above. Viability determinations are shown in FIG. 1B, where 2×10^4 chondrocytes or TC28 cells in 0.2 ml were cultured in triplicate in the presence of antimycin (or oligomycin) at the indicated concentrations, administered every 24 hours for a total of 72 hours, and cell viability was determined by trypan blue dye exclusion (>200 cells counted for each replicate).

[6] = system: Articular Chondrocytes; experiment: Intracellular ATP, luciferase assay; assay type: cell-based, human; settings: 10 ng/ml TGFβ, 0.025 mM antimycin A, 0.02 μg/ml oligomycin; mean ± SD
Protocol: Human articular cartilage chondrocytes were obtained by collagenase digestion of articular cartilage samples, and subsequent monolayer culture, essentially as described by Terkeltaub et al. (Arthritis Rheum. 41:2152–2164, 1998). The starting material for these primary cultures was human articular cartilage excised during surgical joint replacement, or obtained at autopsy from normal or osteoarthritic joints. The articular chondrocytes were grown in Dulbecco's modified Eagle's Medium with high glucose (DMEM high glucose, Life Technologies, Inc. Grand Island, N.Y.) with 10% fetal calf serum (FCS), 1% glutamine, 100 U/ml penicillin and 50 μg/ml streptomycin (all reagents from Sigma, St. Louis, Mo., unless otherwise noted). Typically, only first passage cells were used in the studies described herein.
as §2, with “Calif.). […]” for “Calif.).”

Molecule: Cc1cc(O)ccc1NC(=N)N [A]
cell viability (LDH release) under SIN-1 [1]: protective effect on cell viability
cell viability under NOC-12 [1]: moderating effect of the test compounds on NO cytotoxicity

Molecule: N=C1NCCN1CC(=O)O [B]
cell viability (LDH release) under SIN-1 [1]: protective effect on cell viability
cell viability under NOC-12 [1]: moderating effect of the test compounds on NO cytotoxicity

Molecule: CN(CC(=O)O)C(=N)N [C]
GAG release induced by SIN-1 or NOC-12 ([2]; SIN-1 (100 μM) or NOC-12 (25 μM), 1 μM compound, not shown): the severity of this release was moderated
IL-1β-stimulated GAG release ([2]; TC28 nodules on polyHEMA-coated plates): somewhat attenuated the degree of GAG release
cell viability (LDH release) under SIN-1 [1]: protective effect on cell viability
cell viability under NOC-12 [1]: moderating effect of the test compounds on NO cytotoxicity

Molecule: N=C(N)Nc1ccc(N2CCOCC2)cc1 [E]
intracellular ATP levels relative to control culture not exposed to NOC-12 [3]: significant depression of intracellular ATP
cell viability under NOC-12 [1]: significantly higher viability

Molecule: CC(=N)NNCC1(C)CCc2c(C)c(O)c(C)c(C)c2O1 (centres unmarked) [J]
cell viability of cells exposed to SIN-1 or NOC-12 [1]: demonstrated chondrocyte protective activity

Molecule: CN(C)c1cc(C(C)(C)c2ccc(O)c(N(C)C)c2)ccc1O [K]
cell viability of cells exposed to SIN-1 or NOC-12 [1]: demonstrated chondrocyte protective activity

Molecule: CC(C)(c1ccc(O)cc1)c1ccc(O)c(N)c1 [L]
cell viability of cells exposed to SIN-1 or NOC-12 [1]: demonstrated chondrocyte protective activity

Molecule: CCNCCN(CC)N(O)N=O [NOC-12, N-ethyl-2-(1-ethyl-2-hydroxy-2-nitrosohydrazino)ethanamine]
intracellular ATP levels relative to control culture not exposed to NOC-12 [3]: significant depression of intracellular ATP
GAG release caused by stressor [2]: also released GAG
respiratory rates [4]: markedly inhibited respiratory rates
intracellular ATP levels (qualitative) [5]: depressed intracellular ATP levels

Molecule: Nc1c[n+](N2CCOCC2)no1.[Cl-] [SIN-1, 3-morpholinosydnonimine, HCl]
GAG release caused by stressor [2]: also released GAG
respiratory rates [4]: markedly inhibited respiratory rates
intracellular ATP levels (qualitative) [5]: depressed intracellular ATP levels

Molecule: IL-1β: inflammatory cytokine human recombinant interleukin-1 beta
effect of stressor on intracellular ATP levels ([3]; TC28 cells): did not cause a decrease in intracellular ATP levels
GAG release caused by stressor [2]: IL-1β-stimulated GAG release
effect of stressor on viability ([1]; TC28 cells): did not cause a decrease

ATP (pmoles/μg DNA): Articular Chondrocytes [6]: 1,158 ± 6.9 pmoles/μg DNA
Molecule: TGFβ
ATP (pmoles/μg DNA):TC28 cells ([3]; 10 ng/ml TGFβ, 0.025 mM antimycin A, 0.02 μg/ml oligomycin, mean ± SD): 801.6 ± 4.9 pmoles/μg DNA
increase of intracellular ATP ([5]; chondrocytes, assessed 72 hours after treatment): about 3 fold
